Data on 65 compounds can be found in US12581252B2, “Substituted pyrrolo[3,4-b]pyridines as PI3K-α inhibitors” (Relay Therapeutics, Inc., priority 2020, dated 2026).

The target of this assay is H1047R PIK3CA enzyme (Homo sapiens, UniProt P42336, H1047R). Put plainly: ADP-Glo Biochemical PIK3CA Kinase Assay. On the technique in general: In ADP-Glo the light output rises with the ADP produced.
Sequence of H1047R PIK3CA enzyme (P42336 whole entry H1047R): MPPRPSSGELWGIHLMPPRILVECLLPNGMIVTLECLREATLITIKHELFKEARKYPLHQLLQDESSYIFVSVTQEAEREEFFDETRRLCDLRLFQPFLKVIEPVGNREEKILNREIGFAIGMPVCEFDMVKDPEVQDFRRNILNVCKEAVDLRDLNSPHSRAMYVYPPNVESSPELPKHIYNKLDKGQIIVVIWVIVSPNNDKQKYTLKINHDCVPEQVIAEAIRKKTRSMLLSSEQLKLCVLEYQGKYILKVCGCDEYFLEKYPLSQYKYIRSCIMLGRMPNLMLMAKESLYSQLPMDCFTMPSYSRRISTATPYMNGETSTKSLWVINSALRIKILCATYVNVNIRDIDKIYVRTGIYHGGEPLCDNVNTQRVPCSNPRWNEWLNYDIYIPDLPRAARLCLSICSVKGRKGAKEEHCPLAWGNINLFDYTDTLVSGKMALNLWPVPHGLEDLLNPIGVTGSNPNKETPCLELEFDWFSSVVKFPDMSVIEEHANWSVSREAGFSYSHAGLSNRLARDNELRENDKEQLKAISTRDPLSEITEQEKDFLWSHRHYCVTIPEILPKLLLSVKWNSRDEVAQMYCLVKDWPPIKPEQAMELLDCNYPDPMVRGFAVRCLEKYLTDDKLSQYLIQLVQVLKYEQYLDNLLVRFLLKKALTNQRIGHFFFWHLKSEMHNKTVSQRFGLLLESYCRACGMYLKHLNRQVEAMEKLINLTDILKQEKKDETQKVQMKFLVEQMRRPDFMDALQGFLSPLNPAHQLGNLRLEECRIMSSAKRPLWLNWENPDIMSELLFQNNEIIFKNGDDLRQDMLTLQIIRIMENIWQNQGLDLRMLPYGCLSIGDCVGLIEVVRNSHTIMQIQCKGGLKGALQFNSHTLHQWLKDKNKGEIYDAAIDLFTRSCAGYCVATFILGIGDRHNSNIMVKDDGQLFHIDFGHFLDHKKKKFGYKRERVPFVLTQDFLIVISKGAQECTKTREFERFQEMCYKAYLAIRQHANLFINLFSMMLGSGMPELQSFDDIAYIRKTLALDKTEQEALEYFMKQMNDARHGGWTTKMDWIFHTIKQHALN
Sequence of H1047R PIK3CA enzyme (P27986 whole entry partner): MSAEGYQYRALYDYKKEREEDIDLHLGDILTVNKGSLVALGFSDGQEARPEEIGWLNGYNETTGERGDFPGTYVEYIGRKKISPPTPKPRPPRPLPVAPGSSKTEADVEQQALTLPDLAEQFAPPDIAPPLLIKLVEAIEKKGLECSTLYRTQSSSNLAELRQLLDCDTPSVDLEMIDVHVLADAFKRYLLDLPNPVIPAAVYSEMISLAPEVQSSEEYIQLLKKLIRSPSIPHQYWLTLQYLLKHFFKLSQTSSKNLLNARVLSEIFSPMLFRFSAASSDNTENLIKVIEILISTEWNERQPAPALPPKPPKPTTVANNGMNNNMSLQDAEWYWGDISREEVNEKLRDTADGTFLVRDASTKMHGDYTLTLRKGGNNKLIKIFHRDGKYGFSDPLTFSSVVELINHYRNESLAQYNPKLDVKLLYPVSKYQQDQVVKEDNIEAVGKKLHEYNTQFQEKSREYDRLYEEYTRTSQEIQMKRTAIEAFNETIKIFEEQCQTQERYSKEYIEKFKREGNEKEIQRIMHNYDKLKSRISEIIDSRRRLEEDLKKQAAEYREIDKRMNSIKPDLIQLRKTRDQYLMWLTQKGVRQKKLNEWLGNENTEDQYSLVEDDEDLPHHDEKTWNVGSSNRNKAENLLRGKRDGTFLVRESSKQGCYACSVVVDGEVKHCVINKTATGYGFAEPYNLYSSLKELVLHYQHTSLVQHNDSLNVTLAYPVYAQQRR
In general, IC50 refers to the concentration that gives 50% inhibition. A low value points to greater potency. `O=C(Nc1cc(N2CC(C(F)F)C2)nc2c1C(c1cc(F)ccc1Cl)NC2=O)c1cc(F)cc(C(F)(F)F)c1` (centres unmarked) [Compound I-487]: the half-inhibitory concentration (IC50) was ≤ 0.1 µM.
The value for `O=C(Nc1cc(N2CC(F)C2)nc2c1C(c1cc(F)ccc1Cl)NC2=O)c1cc(F)cc(C(F)(F)F)c1` (centres unmarked) [Compound I-488] was ≤ 0.1 µM; that for `Cn1cc(-c2ccc(Cl)c(C3NC(=O)c4cccc(NC(=O)c5cc(F)cc(C(F)(F)F)c5)c43)c2)cn1` (centres unmarked) [Compound I-489] was 10 to 100 µM; that for `N#Cc1cc(NC(=O)c2cc(F)cc(C(F)(F)F)c2)c2c(c1)C(=O)NC2c1cc(F)ccc1Cl` (centres unmarked) [Compound I-490] was ≤ 0.1 µM.
Turning to `O=C1NC(c2cc(F)ccc2Cl)c2c(NC(=O)N3CCCC(F)C3)cc(Br)cc21` (centres unmarked) [Compound I-491], the IC50 fell in the range of 10 to 100 µM.
The value for `Cc1ccccc1C1NC(=O)c2cccc(NC3(c4cc(F)cc(C(F)(F)F)c4)COC3)c21` (centres unmarked) [Compound I-492] was 1 to 10 µM.
As for `O=C(O)c1cc(NC(=O)c2cc(F)cc(C(F)(F)F)c2)c2c(c1)C(=O)NC2c1cc(F)ccc1Cl` (centres unmarked) [Compound I-494], the figure is ≤ 0.1 µM; as for `CC(C)(O)c1cc(NC(=O)c2cc(F)cc3cc[nH]c23)c2c(c1)C(=O)NC2c1cc(F)ccc1Cl` (centres unmarked) [Compound I-495], ≤ 0.1 µM.
The value for `O=C(Nc1cc(-c2cnc(C(F)(F)F)s2)nc2c1C(c1cc(F)ccc1Cl)NC2=O)c1cc(F)cc(Cl)c1` (centres unmarked) [Compound I-496] was ≤ 0.1 µM; that for `Cc1ccc(-c2cc(NC(=O)c3cc(F)cc(Cl)c3)c3c(n2)C(=O)NC3c2cc(F)ccc2Cl)cn1` (centres unmarked) [Compound I-497] was 0.1 to 0.5 µM.
`Cn1ccc(-c2cc(NC(=O)c3cc(F)cc(Cl)c3)c3c(n2)C(=O)NC3c2cc(F)ccc2Cl)cc1=O` (centres unmarked) [Compound I-499]: the IC50 fell in the range of 0.1 to 0.5 µM.
The compound `COc1cc(C)c(C(=O)Nc2cccc3c2C(c2ccccc2C)NC3=O)cn1` (centres unmarked) [Compound I-501] showed an IC50 of 10 to 100 µM.
As for `O=C(Nc1cc(-c2ccncc2F)nc2c1C(c1cc(F)ccc1Cl)NC2=O)c1cc(F)cc(Cl)c1` (centres unmarked) [Compound I-502], the figure is ≤ 0.1 µM; as for `Cc1cnccc1-c1cc(NC(=O)c2cc(F)cc(Cl)c2)c2c(n1)C(=O)NC2c1cc(F)ccc1Cl` (centres unmarked) [Compound I-503], ≤ 0.1 µM; as for `Cc1ccccc1C1NC(=O)c2cccc(NC(=O)c3c[nH]c(=O)c(Br)c3C)c21` (centres unmarked) [Compound I-504], 10 to 100 µM.
On to `COc1cnccc1-c1cc(NC(=O)c2cc(F)cc(Cl)c2)c2c(n1)C(=O)NC2c1cc(F)ccc1Cl` (centres unmarked) [Compound I-505], for which the IC50 is 0.1 to 0.5 µM.
The value for `N#Cc1cnccc1-c1cc(NC(=O)c2cc(F)cc(Cl)c2)c2c(n1)C(=O)NC2c1cc(F)ccc1Cl` (centres unmarked) [Compound I-506] was ≤ 0.1 µM; that for `NC(=O)c1cnccc1-c1cc(NC(=O)c2cc(F)cc(Cl)c2)c2c(n1)C(=O)NC2c1cc(F)ccc1Cl` (centres unmarked) [Compound I-507] was 1 to 10 µM.
On to `Cc1ccccc1[C@@H]1NC(=O)c2c(C(N)=O)ccc(NC(=O)c3cc(F)cc(C(F)(F)F)c3)c21` [Compound I-508], for which the half-inhibitory concentration (IC50) was ≤ 0.1 µM.
The value for `Cc1ccccc1[C@H]1NC(=O)c2c(C(N)=O)ccc(NC(=O)c3cc(F)cc(C(F)(F)F)c3)c21` [Compound I-509] was 0.1 to 0.5 µM; that for `O=C(NCC(F)F)Nc1cc(NC(=O)c2cc(F)cc(C(F)(F)F)c2)c2c(c1)C(=O)NC2c1cc(F)ccc1Cl` (centres unmarked) [Compound I-510] was ≤ 0.1 µM.
Regarding `O=C(CO)Nc1cc(NC(=O)c2cc(F)cc(C(F)(F)F)c2)c2c(c1)C(=O)N[C@H]2c1cc(F)ccc1Cl` [Compound I-511], the IC50 was ≤ 0.1 µM.
As to `O=C(CO)Nc1cc(NC(=O)c2cc(F)cc(C(F)(F)F)c2)c2c(c1)C(=O)N[C@@H]2c1cc(F)ccc1Cl` [Compound I-512], the half-maximal inhibitory concentration (IC50) fell in the range of 0.1 to 0.5 µM.
The value for `O=C(Nc1cc(NC(=O)N2CC(F)(F)C2)cc2c1C(c1cc(F)ccc1Cl)NC2=O)c1cc(F)cc(C(F)(F)F)c1` (centres unmarked) [Compound I-513] was ≤ 0.1 µM.
Consider `O=C(Nc1cc(Br)cc2c1C(c1cc(F)ccc1Cl)NC2=O)c1cccc(OC(F)(F)F)c1` (centres unmarked) [Compound I-514], for which the IC50 lay in the range of 0.5 to 1 µM.
The value for `O=C(Nc1cc(Br)cc2c1C(c1cc(F)ccc1Cl)NC2=O)c1cc(C(F)(F)F)ccc1F` (centres unmarked) [Compound I-515] was 1 to 10 µM; that for `O=C(Nc1cc(Br)cc2c1C(c1cc(F)ccc1Cl)NC2=O)c1ccc(F)c(OC(F)(F)F)c1` (centres unmarked) [Compound I-516] was 0.1 to 0.5 µM; that for `N#Cc1ccc(C(=O)Nc2cc(Br)cc3c2C(c2cc(F)ccc2Cl)NC3=O)cc1` (centres unmarked) [Compound I-517] was 10 to 100 µM.
The value for `O=C(Nc1cc(Br)cc2c1C(c1cc(F)ccc1Cl)NC2=O)c1ccccc1C(F)F` (centres unmarked) [Compound I-518] was 10 to 100 µM; that for `Cc1ccc(C(=O)Nc2cc(Br)cc3c2C(c2cc(F)ccc2Cl)NC3=O)cc1` (centres unmarked) [Compound I-519] was 10 to 100 µM; that for `Cc1cccc(C(=O)Nc2cc(Br)cc3c2C(c2cc(F)ccc2Cl)NC3=O)c1` (centres unmarked) [Compound I-520] was 1 to 10 µM.
The value for `O=C(Nc1cc(Br)cc2c1C(c1cc(F)ccc1Cl)NC2=O)c1cc(Cl)cc(Cl)c1` (centres unmarked) [Compound I-521] was ≤ 0.1 µM; that for `N#Cc1cccc(C(=O)Nc2cc(Br)cc3c2C(c2cc(F)ccc2Cl)NC3=O)c1` (centres unmarked) [Compound I-522] was 1 to 10 µM; that for `O=C(Nc1cc(Br)cc2c1C(c1cc(F)ccc1Cl)NC2=O)c1ccnc(C(F)(F)F)c1` (centres unmarked) [Compound I-523] was 10 to 100 µM.
`O=C(Nc1cc(Br)cc2c1C(c1cc(F)ccc1Cl)NC2=O)c1ccc(OC(F)(F)F)cc1` (centres unmarked) [Compound I-524]: the half-maximal inhibitory concentration (IC50) was 1 to 10 µM.
The value for `O=C(Nc1cc(Br)cc2c1C(c1cc(F)ccc1Cl)NC2=O)c1ccc(F)cc1` (centres unmarked) [Compound I-525] was 10 to 100 µM.
As for `O=C(Nc1cc(Br)cc2c1C(c1cc(F)ccc1Cl)NC2=O)c1cccc(F)c1` (centres unmarked) [Compound I-526], the figure is 1 to 10 µM; as for `O=C(Nc1cc(Br)cc2c1C(c1cc(F)ccc1Cl)NC2=O)c1ccc(Cl)cc1` (centres unmarked) [Compound I-527], 1 to 10 µM; as for `Cc1ccccc1C1NC(=O)c2cc(Br)cc(NC(=O)c3cncc(C(F)(F)F)c3)c21` (centres unmarked) [Compound I-528], 1 to 10 µM.
For `O=C(Nc1cc(CCC(F)(F)F)nc2c1C(c1cc(F)ccc1Cl)NC2=O)c1cc(F)cc(C(F)(F)F)c1` (centres unmarked) [Compound I-529], the half-inhibitory concentration (IC50) was ≤ 0.1 µM.
The value for `O=C(Nc1cc(NC2CCC2(F)F)cc2c1C(c1cc(F)ccc1Cl)NC2=O)c1cc(F)cc(C(F)(F)F)c1` (centres unmarked) [Compound I-530] was ≤ 0.1 µM; that for `N#Cc1cc(NC(=O)c2cc(F)cc(Cl)c2)c2c(c1)C(=O)NC2c1cc(F)ccc1Cl` (centres unmarked) [Compound I-531] was ≤ 0.1 µM; that for `O=C(Nc1cc(NC2CCC2(F)F)nc2c1C(c1cc(F)ccc1Cl)NC2=O)c1cc(F)cc(C(F)(F)F)c1` (centres unmarked) [Compound I-532] was ≤ 0.1 µM.
As for `N#CCc1cc(NC(=O)c2cc(F)cc(C(F)(F)F)c2)c2c(c1)C(=O)NC2c1cc(F)ccc1Cl` (centres unmarked) [Compound I-533], the figure is ≤ 0.1 µM.
As for `Cc1ccccc1C1NC(=O)c2cc(Br)cc(NC(=O)c3cc(F)cc(C4CC4)c3)c21` (centres unmarked) [Compound I-534], the figure is 1 to 10 µM.
Consider `Cc1ccccc1C1NS(=O)(=O)c2cccc(NC(=O)c3cc(F)cc(C(F)(F)F)c3)c21` (centres unmarked) [Compound I-535], for which the IC50 was 1 to 10 µM.
For `Cc1ccccc1C1NC(=O)c2cc(CF)cc(NC(=O)c3cc(F)cc(C(F)(F)F)c3)c21` (centres unmarked) [Compound I-536], the IC50 was ≤ 0.1 µM.
The value for `O=C(Nc1cccc2c1C(N1CCCCC1)NC2=O)c1cc(F)cc(C(F)(F)F)c1` (centres unmarked) [Compound I-537] was 10 to 100 µM; that for `O=C(Nc1cc(N2CCCC(F)(F)C2)nc2c1C(c1cc(F)ccc1Cl)NC2=O)c1cc(F)cc(C(F)(F)F)c1` (centres unmarked) [Compound I-538] was ≤ 0.1 µM; that for `O=C(Nc1cc(N2CCC(F)(F)CC2)nc2c1C(c1cc(F)ccc1Cl)NC2=O)c1cc(F)cc(C(F)(F)F)c1` (centres unmarked) [Compound I-539] was ≤ 0.1 µM.
As for `O=C1NC(c2cc(F)ccc2Cl)c2c(NC(=O)N3CCC(F)C3)cc(Br)cc21` (centres unmarked) [Compound I-542], the 50% inhibitory concentration (IC50) lay within 10 to 100 µM.
Compound `O=C1NC(c2cc(F)ccc2Cl)c2c(NC(=O)N3CCC(C(F)(F)F)C3)cc(Br)cc21` (centres unmarked) [Compound I-543] showed an IC50 of 1 to 10 µM.
In turn, `O=C1NC(c2cc(F)ccc2Cl)c2c(NC(=O)N3CCCC(F)(F)C3)cc(Br)cc21` (centres unmarked) [Compound I-544] yielded an IC50 of 1 to 10 µM.
As to `O=C(Nc1cc(Cl)nc2c1C(c1cc(F)ccc1Cl)NC2=O)c1cc(F)cc(C(F)(F)F)c1` (centres unmarked) [Compound I-545], the half-inhibitory concentration (IC50) was ≤ 0.1 µM.
The value for `Cc1ncc(-c2cc(NC(=O)c3cc(F)cc(C(F)(F)F)c3)c3c(n2)C(=O)NC3c2cc(F)ccc2Cl)s1` (centres unmarked) [Compound I-546] was ≤ 0.1 µM.
As for `Cn1cc(-c2cc(NC(=O)c3cc(F)cc(C(F)(F)F)c3)c3c(n2)C(=O)NC3c2cc(F)ccc2Cl)ccc1=O` (centres unmarked) [Compound I-547], the figure is ≤ 0.1 µM; as for `O=C(Nc1cc(-c2ccncc2F)nc2c1C(c1cc(F)ccc1Cl)NC2=O)c1cc(F)cc(C(F)(F)F)c1` (centres unmarked) [Compound I-548], ≤ 0.1 µM.
The value for `N#Cc1cnccc1-c1cc(NC(=O)c2cc(F)cc(C(F)(F)F)c2)c2c(n1)C(=O)NC2c1cc(F)ccc1Cl` (centres unmarked) [Compound I-549] was ≤ 0.1 µM; that for `O=C(Nc1ccnc2c1C(c1ccccc1Cl)NC2=O)c1cc(F)c(F)c(Cl)c1` (centres unmarked) [Compound I-550] was 0.5 to 1 µM; that for `CCC(=O)Nc1cc(NC(=O)c2cc(F)cc(C(F)(F)F)c2)c2c(c1)C(=O)NC2c1cc(F)ccc1Cl` (centres unmarked) [Compound I-552] was ≤ 0.1 µM.
On to `O=C(Nc1cncc2c1C(c1cc(F)ccc1Cl)NC2=O)c1cc(F)cc(C(F)(F)F)c1` (centres unmarked) [Compound I-553], for which the IC50 is ≤ 0.1 µM.
On to `CCC(N)(CC)c1cc(NC(=O)c2cc(F)cc(C(F)(F)F)c2)c2c(c1)C(=O)NC2c1cc(F)ccc1Cl` (centres unmarked) [Compound I-554], for which the IC50 was ≤ 0.1 µM.
As for `NC(=O)c1cc(NC(=O)c2cc(F)cc(C(F)(F)F)c2)c2c(c1)C(=O)NC2c1cc(F)ccc1Cl` (centres unmarked) [Compound I-555], the IC50 is ≤ 0.1 µM.
The compound `CCOc1cc(C(=O)Nc2cc(Br)cc3c2C(c2cc(F)ccc2Cl)NC3=O)ccc1F` (centres unmarked) [Compound I-556] returned an IC50 of 1 to 10 µM.
As for `O=C1NC(c2cc(F)ccc2Cl)c2c(NC(=O)C3(c4cccc(F)c4)CC3)cc(Br)cc21` (centres unmarked) [Compound I-557], the figure is 1 to 10 µM.
